{"source": "ChEMBL document CHEMBL1148090", "about": "“Antibacterial and antifungal sulfated alkane and alkenes from the hepatopancreas of the ascidian Halocynthia roretzi” (1994)", "key": {"Vibrio alginolyticus": {"system": "Vibrio alginolyticus", "assay": "Antimicrobial activity against Vibrio alginolyticus ATCC 17749 at 0.2 ug/disk after 24 hrs by paper disk method", "type": "functional", "details": "ATCC 17749, 24 h, read-out: IZ"}, "Umbelopsis ramanniana": {"system": "Umbelopsis ramanniana", "assay": "Antimicrobial activity against Mortierella ramanniana at 0.2 ug/disk after 24 hrs by paper disk method", "type": "functional", "details": "read-out: IZ"}}}
{"smiles": "CC/C=C/C/C=C\\CCCOS(=O)(=O)O", "values": [{"measurement": "zone of inhibition at 0.2 µg/disc", "setting": "Vibrio alginolyticus", "result": 12, "unit": "mm"}, {"measurement": "zone of inhibition at 0.2 µg/disc", "setting": "Umbelopsis ramanniana", "result": 10, "unit": "mm"}]}
{"smiles": "CC(C)CCCC(C)COS(=O)(=O)O", "note": "(stereo not drawn)", "values": [{"measurement": "zone of inhibition at 0.2 µg/disc", "setting": "Vibrio alginolyticus", "result": 12, "unit": "mm"}, {"measurement": "zone of inhibition at 0.2 µg/disc", "setting": "Umbelopsis ramanniana", "result": 10, "unit": "mm"}]}
{"smiles": "C=CC/C=C\\C/C=C\\CCOS(=O)(=O)O", "values": [{"measurement": "zone of inhibition at 0.2 µg/disc", "setting": "Vibrio alginolyticus", "result": 12, "unit": "mm"}, {"measurement": "zone of inhibition at 0.2 µg/disc", "setting": "Umbelopsis ramanniana", "result": 10, "unit": "mm"}]}
{"smiles": "CC/C=C\\C/C=C\\CCCOS(=O)(=O)O", "values": [{"measurement": "zone of inhibition at 0.2 µg/disc", "setting": "Vibrio alginolyticus", "result": 12, "unit": "mm"}, {"measurement": "zone of inhibition at 0.2 µg/disc", "setting": "Umbelopsis ramanniana", "result": 10, "unit": "mm"}]}
